Results as given in the NIST ThermoML archive (doi:10.1021/je800110r).
“And” between values parts separate entries of the source, which are not always exact repeats. Identical values can stand only once.

Details: 323.15 K, Liquid, Vibrating tube method

CCCCCCCCCC [decane]
Details	mass density
979 kPa	707.8 kg/m3
1136 kPa	707.9 kg/m3
1175 kPa	707.9 kg/m3
2516 kPa	709.2 kg/m3
2603 kPa	709.2 kg/m3
2658 kPa	709.3 kg/m3
2678 kPa	709.4 kg/m3
2691 kPa	709.3 kg/m3
2692 kPa	709.2 kg/m3 and 709.4 kg/m3
2703 kPa	709.4 kg/m3
2822 kPa	709.4 kg/m3
2861 kPa	709.4 kg/m3
2878 kPa	709.5 kg/m3
2894 kPa	709.6 kg/m3
2913 kPa	709.5 kg/m3
2936 kPa	709.5 kg/m3
2951 kPa	709.6 kg/m3
2967 kPa	709.5 kg/m3
2987 kPa	709.6 kg/m3
3000 kPa	709.7 kg/m3
3022 kPa	709.6 kg/m3
3044 kPa	709.5 kg/m3
3064 kPa	709.6 kg/m3
3081 kPa	709.7 kg/m3
4273 kPa	710.8 kg/m3
4294 kPa	710.8 kg/m3
4322 kPa	710.8 kg/m3
4342 kPa	710.9 kg/m3
4361 kPa	710.8 kg/m3
4382 kPa	710.8 kg/m3
4423 kPa	710.9 kg/m3
4487 kPa	711 kg/m3
4606 kPa	711 kg/m3
4625 kPa	711.1 kg/m3
4647 kPa	711.1 kg/m3
4668 kPa	711.2 kg/m3
4685 kPa	711.2 kg/m3
4861 kPa	711.3 kg/m3
4889 kPa	711.4 kg/m3
4922 kPa	711.3 kg/m3
5651 kPa	712 kg/m3
5805 kPa	712.2 kg/m3
5822 kPa	712.1 kg/m3
5843 kPa	712.2 kg/m3
5857 kPa	712.3 kg/m3
5874 kPa	712.2 kg/m3
5887 kPa	712.2 kg/m3
6263 kPa	712.6 kg/m3
6285 kPa	712.6 kg/m3
6300 kPa	712.6 kg/m3
6321 kPa	712.5 kg/m3
6341 kPa	712.7 kg/m3
6363 kPa	712.7 kg/m3
6380 kPa	712.6 kg/m3
6398 kPa	712.7 kg/m3
6436 kPa	712.7 kg/m3
6474 kPa	712.7 kg/m3
6492 kPa	712.8 kg/m3
6514 kPa	712.7 kg/m3
6635 kPa	712.8 kg/m3
6654 kPa	712.9 kg/m3
6678 kPa	712.9 kg/m3
6703 kPa	713 kg/m3
6916 kPa	713 kg/m3
6934 kPa	713.1 kg/m3
6961 kPa	713.2 kg/m3
6979 kPa	713.1 kg/m3
7007 kPa	713.1 kg/m3
7029 kPa	713.3 kg/m3
7057 kPa	713.3 kg/m3
7082 kPa	713.3 kg/m3
7102 kPa	713.2 kg/m3
7118 kPa	713.3 kg/m3
7137 kPa	713.4 kg/m3
7158 kPa	713.4 kg/m3
7174 kPa	713.4 kg/m3
7190 kPa	713.4 kg/m3
7203 kPa	713.3 kg/m3
7224 kPa	713.3 kg/m3
7238 kPa	713.4 kg/m3
7254 kPa	713.5 kg/m3
7271 kPa	713.5 kg/m3
7304 kPa	713.4 kg/m3
7318 kPa	713.5 kg/m3
7339 kPa	713.4 kg/m3
7354 kPa	713.4 kg/m3
7368 kPa	713.5 kg/m3
8395 kPa	714.3 kg/m3
8425 kPa	714.4 kg/m3
8563 kPa	714.5 kg/m3
8605 kPa	714.6 kg/m3
9325 kPa	715.2 kg/m3
9451 kPa	715.3 kg/m3
10321 kPa	715.9 kg/m3
10344 kPa	716 kg/m3
10548 kPa	716.3 kg/m3
11286 kPa	716.8 kg/m3
11307 kPa	716.8 kg/m3
11331 kPa	716.8 kg/m3
11359 kPa	716.8 kg/m3
11377 kPa	716.9 kg/m3
11401 kPa	717 kg/m3
11467 kPa	717 kg/m3
12096 kPa	717.5 kg/m3
12122 kPa	717.5 kg/m3
12147 kPa	717.6 kg/m3
12173 kPa	717.6 kg/m3
12190 kPa	717.7 kg/m3
12213 kPa	717.5 kg/m3
12230 kPa	717.6 kg/m3
12257 kPa	717.6 kg/m3
12397 kPa	717.7 kg/m3
12417 kPa	717.7 kg/m3
12435 kPa	717.8 kg/m3
12457 kPa	717.8 kg/m3
12472 kPa	717.8 kg/m3
12495 kPa	717.8 kg/m3
12510 kPa	717.9 kg/m3
12528 kPa	717.8 kg/m3
12854 kPa	718.2 kg/m3
12869 kPa	718.2 kg/m3
12887 kPa	718.1 kg/m3
12906 kPa	718.2 kg/m3
12919 kPa	718.1 kg/m3
12964 kPa	718.2 kg/m3
12977 kPa	718.3 kg/m3
12991 kPa	718.2 kg/m3
13012 kPa	718.2 kg/m3
13060 kPa	718.2 kg/m3
13843 kPa	718.9 kg/m3
13863 kPa	718.9 kg/m3
13877 kPa	718.9 kg/m3
13892 kPa	719 kg/m3
13909 kPa	719 kg/m3
13924 kPa	719 kg/m3
13946 kPa	719 kg/m3
